Test results taken from patent publication US20230110065A1, “COMBINATION OF ANETHOLE TRITHIONE OR ITS DERIVATIVE, 4-OH-ANETHOLE TRITHIONE, WITH DOXYCYCLINE OR MINOCYCLINE FOR THE USE THEREOF IN THE TREATMENT OF PARKINSON'S DISEASE” (priority 2020, published 2023).
Entries after “also recorded” stand apart in the source; their conditions may differ.

Legend:
[1] = doxycycline 50 mg every 6 hrs; intended, from Dotevall, 1989; Karlsson, 1996; cited from earlier work
[2] = tested on: microglia in culture activated by LPS (TLR4 agonist); assay: TNF-a release (ELISA) in microglia in culture activated by LPS; type: cell-based, mouse
Excerpt: Purification of microglia: The cultures were produced from a cell suspension obtained by mechanical dissociation of the brains of newborn mice, C57BL/6J (Janvier LABS), according to a protocol described by Sepulveda-Diaz and colleagues (Glia, 2016) and modified subsequently by dos-Santos-Pereira and colleagues (Glia, 2020). The protocol used follows the directives of the Council of the European Union (2010/63/EU). It was approved by the Ethics Committee for Animal Experimentation, Charles Darwin no. 5. Corning culture flasks of 75 cm^2 precoated with a polycation, polyethyleneimine (PEI; 1 mg/mL) diluted in a borate buffer pH 8.3, were used so as to obtain spontaneous isolation of the microglial cells after 15-20 days of culture, this isolation taking place at the expense of other cell populations, in particular, astrocytes. In order to maintain the flask cultures, Dulbecco’s modified Eagle’s medium (DMEM) supplemented with 10% fetal bovine serum (FBS, Biowest LLC) and 1% penicillin/streptomycin cocktail was used (see experimental details described in the publication of Sepulveda-Diaz and colleagues). After the microglia purification step, the microglia adhering in the culture flasks were trypsinized to produce subcultures in 48-well multi-well Nunc plates. These cultures were maintained in the presence of DMEM, supplemented with 20 mM HEPES and 1% FBS. […]
(§1) Assessment of TNF-a levels: The culture medium of the microglia, recovered 24 hrs after the stimulation by the inflammogens was initiated, was then frozen at -20° C. until the analysis. TNF-a was detected with an ELISA kit from ThermoFisher (BMS607-3TWO), following the supplier’s instructions (dos-Santos-Pereira et al, Glia, 2020). The absorbance of each sample was measured at 450 nm with a SpectraMax i3X.
(§2) Statistical analysis: The experimental data were analyzed with the GraphPad Prism 8.3.1 software by applying a One-Way ANOVA test, followed by a post-hoc Student Newman Keuls test.

[3] = tested on: dopaminergic neurons in midbrain cultures; assay: Survival of dopaminergic (TH+) neurons in midbrain cultures under low-noise, spontaneous oxidative stress; type: cell-based, mouse; conditions: 7 days, FIG. 8
Method: Midbrain cultures and immunodetection of tyrosine hydroxylase (TH): Mouse midbrain cultures were produced based on a protocol initially described by Troadec and colleagues (2001) and subsequently taken up by Rousseau and colleagues (2013). The cultures were generated from Swiss mouse embryos (Janvier LABS, Le Genest-St Isles) taken from the pregnant mother on day 13.5 of gestation. The cells dissociated from the midbrain were cultured in 48-well plates containing 500 µl of DMEM/HamF12 medium, supplemented with 10% fetal bovine serum (Biowest LLC, Les Ulis, France). Approximately 80-100 10^3 cells were added initially to each culture well. After one hour, the initial medium was replaced with the DMEM/HamF12 medium supplemented with 20 µg/mL of insulin. The culture medium (350 µl) and the treatments were renewed on days 1 and 3 in vitro. The cultures were maintained for a total of 7 days before binding and analysis. […] TH^+ neurons were counted according to a protocol described previously (Rousseau et al, 2013). The counts are expressed as % of the values obtained in the control cultures treated with apotransferrin.
Statistical analysis: The experimental data correspond to mean ± SEM values. […] The data were analyzed with the GraphPad Prism 8.3.1 software or Sigmaplot 12.5 software using One-Way ANOVA, followed by a post-hoc Student Newman Keuls test.

[4] = cited from earlier work
[5] = tested on: Parkinson's disease; assay: Clinical case: person with Parkinson's disease; type: in vivo, human
Method: This therapeutic solution was tested on a person with Parkinson’s disease. A history of events over 3 years (current follow-up) is presented below:
Symptoms: At the very beginning of 2018, the first manifestations of Parkinson’s appeared: tremors in the left hand, slowing of walking pace, chaotic descent of stairs, tilting of the torso forward accompanied by back pain in the form of muscle contractures, as well as the beginnings of various obvious non-motor disorders (withdrawal, indifference, difficult decision-making, loss of joy in life, depression, etc.), constipation, hyposmia. Initially, ATT was tested as monotherapy.
Treatment: The problem then arose of deciding which dose to use. The patient was already taking ATT to treat a problem of benign prostatic hypertrophy (cf. patent WO2019/O73173) and used it with the greatest satisfaction at a dose of 3 cp to 25 mg, given in the morning and evening, but the dose turned out to be insufficient for treating Parkinson’s disease. A blood-brain barrier crossing problem was suspected and the decision was taken to increase this dose by 4 times by dividing it into 4 daily doses, i.e., 4 x 6 tablets/day (equivalent to 600 mg/day), so as to reduce concentration fluctuations as much as possible (the plasma half-life of ATT in humans is approximately 3 hrs).
Symptoms: In April-May 2019, unusual fatigue manifested when the patient performed strenuous tasks.
Treatment: Faced with worsening fatigue, the decision was taken, on Dec. 19, 2019, to add doxycycline at a dose of 50 mg every 6 hrs, which dose was intended to ensure stable concentrations in the LCR of approximately 0.9 µM/L (Dotevall, 1989; Karlsson, 1996), i.e., around 3 times what Gonzalez-Lizzaraga (2017) recommends.

[6] = in humans; cited from earlier work
[7] = target: T1, a-synuclein (Homo sapiens, UniProt P37840); assay: Transmission electron microscopy of a-synuclein aggregates; type: biochemical; conditions: ATX 10 µM
T1 construct: made in house; host or cells: Escherichia coli (plasmid pT7-7)
Method: Transmission electron microscopy: The a-synuclein samples, shaken in the optional presence of the treatments of interest, were characterized by transmission electron microscopy. Aliquots of 50 µl of each solution were used for this analysis. The sample preparation protocol is described in detail by Gonzalez-Lizarraga and colleagues (2020). Images were obtained with a transmission electron microscope, Philips EM 301.

[8] = target: T1, a-synuclein; assay: Amyloid aggregation of a-synuclein by orbital shaking, Thioflavin-T test; type: biochemical; conditions: ATX 1, 10 or 100 µM, 600 rpm, 37° C., 96 h; FIG. 5B
Method: Preparation of a-synuclein: Human recombinant a-synuclein was produced from a strain of Escherichia coli carrying a plasmid pT7-7 containing the coding sequence of the protein (Kaylor et al, J Mol Biol, 2005; Gonzalez-Lizarraga et al, Sci Rep, 2020). After a purification step, the purity of the protein was evaluated by polyacrylamide gel electrophoresis under denaturing conditions (SDS-PAGE). The stock solution of a-synuclein was prepared in a buffer containing 20 mM of HEPES and 150 mM of NaCl at pH 7.4. Before initiating the aggregation protocol, the protein was centrifuged at 12000 g for 30 minutes in order to eliminate the micro-aggregates. The protein concentration was measured at 280 nm with a Nanodrop 8000 spectrophotometer (Gonzalez-Lizarraga et al, Sci Rep, 2020).
Aggregation of a-synuclein […]: The aggregation protocol was adapted from previous work (Kaylor et al, J Mol Biol, 2005; Gonzalez-Lizarraga et al, Sci Rep, 2020). Briefly, the aggregation of a-synuclein was obtained by orbital shaking (600 rpm; Thermomixer Comfort; Eppendorf), at 37° C. for 96 h, of the recombinant protein (70 µM) solubilized in 20 mM of HEPES and 150 mM of NaCl, pH 7.4. Dimethylformamide (DMF) was used to dilute ATX in this experimental protocol. The formation of aggregated structures was monitored by means of the Thioflavin-T (ThT) test (LeVine et al, Meth Enzymol, 1999).

[9] = tested on: microglia in culture activated by PAM3CSK4 (TLR2 agonist); assay: TNF-a release (ELISA) in microglia in culture activated by PAM3CSK4; type: cell-based, mouse; conditions: PAM3CSK4 1 µg/mL, 24 hrs; FIG. 4
Excerpt: Purification of microglia: The cultures were produced from a cell suspension obtained by mechanical dissociation of the brains of newborn mice, C57BL/6J (Janvier LABS), according to a protocol described by Sepulveda-Diaz and colleagues (Glia, 2016) and modified subsequently by dos-Santos-Pereira and colleagues (Glia, 2020). The protocol used follows the directives of the Council of the European Union (2010/63/EU). It was approved by the Ethics Committee for Animal Experimentation, Charles Darwin no. 5. […]
as §1, §2

## C[C@H]1c2cccc(O)c2C(=O)C2=C(O)[C@]3(O)C(=O)C(C(N)=O)=C(O)[C@@H](N(C)C)[C@@H]3[C@@H](O)[C@@H]21 [DOX, doxycycline]
[1]
  Stable concentrations in the LCR: approximately 0.9 µM/L
[2]; Mus musculus, Microglia, LPS model, 50 µM of DOX, read-out: Inhibition of the release of TNFa
  inhibition at 50 µM: 50%
[2]; Mus musculus, Microglia, LPS model, 100 µM of DOX, read-out: Inhibition of the release of TNFa
  inhibition at 100 µM: ~70%
[3]; DOX 7.5 µM
  Protective effect as % of that of apotransferrin: 27%

## COc1ccc(-c2cc(=S)ss2)cc1 [ATT, anethole trithione]
[3]; 0.75 µM
  Protection as % of that of APO (apotransferrin): 0.6%
[4]; He 2011, Li TM 2007, Li WY 2008
  Metabolization of ATT: metabolizes almost immediately and completely into ATX via O-demethylation
[4]; over a 24-hour period
  ATT found in the patient's urine: almost no ATT can be found
[5]; ATT 150 mg, 4 times a day
  Duration of satisfactory treatment: 13 months
[5]; ATT 150 mg, 4 times a day, after the satisfactory period
  Duration of failure with the onset of new symptoms: 7 months
[5]; two years of treatment
  Side effects: no significant side effects have been noted during these two years of treatment, apart from intestinal meteorism
[6]
  Plasma half-life: approximately 3 hrs

## N[C@@H](Cc1ccc(O)c(O)c1)C(=O)O [L-DOPA]
[5]; July 2019, patient on ATT 600 mg/day
  Effect of introducing SINEMET (L-DOPA) on symptoms: solved the problem of loss of balance but the hand tremors only slightly improved and fatigue persisted

## Oc1ccc(-c2cc(=S)ss2)cc1 [ATX, 4-hydroxy-anethole trithione]
[7]
  Amyloid aggregation of a-synuclein seen by TEM: effectively reduces the amyloid aggregation of a-synuclein
[2]; LPS 10 ng/mL, 24 hrs, FIG. 3
  Release of TNF-a (inflammation marker), result in words: capable of inhibiting the release of TNF-a
[8]
  Inhibition of a-synuclein aggregation (ThT fluorescence), result in words: effective, even at a low concentration; also recorded: effectively and concentration-dependently inhibiting the aggregation
[9]
  Release of TNF-a (inflammation marker), result in words: capable of inhibiting the release of TNF-a
